Laboratory results from ChEMBL document CHEMBL5608246, “Membrane-Targeting Amphiphilic Honokiol Derivatives Containing an Oxazole Moiety as Potential Antibacterials against Methicillin-Resistant Staphylococcus aureus” (J Med Chem, 2024).
Active and inactive are the calls of the source.

What was measured:
Staphylococcus aureus [1] = test: Inhibition of methionine synthesis in methicillin resistant Staphylococcus aureus N315 at 4 ug/ml incubated for 4 hrs by RNA-sequencing analysis; assay type: functional, organism-based; details: dose 4.0 µg/ml
Staphylococcus aureus [2] = test: Antibacterial activity against methicillin resistant Staphylococcus aureus M11 incubated for 16 to 18 hrs by broth dilution method; assay type: functional; details: time 16-18 hrs
Cell membrane [3] = test: Induction of membrane permeability in methicillin resistant Staphylococcus aureus 20 at 16 to 64 ug/ml measured at 2 mins interval over 20 mins by SYTOX green staining based assay; details: dose 16-64 µg/ml
Cell membrane [4] = test: Induction of membrane disruption in methicillin resistant Staphylococcus aureus 20 assessed as viable cells with intact membrane at 16 ug/ml incubated for 2 hrs by SYTO9/PI staining based flow cytometry analysis (reference value: 98.7%); assay type: cell membranes; details: dose 16.0 µg/ml
Staphylococcus aureus [5] = test: Antibacterial activity against methicillin resistant Staphylococcus aureus 20 incubated for 16 to 18 hrs in presence of 32 ug/ml phosphatidylglycerol by checkerboard broth dilution method; assay type: functional; details: time 16-18 hrs
Cell membrane [6] = test: Induction of membrane disruption in methicillin resistant Staphylococcus aureus 20 assessed as wrinkled membrane at 16 times MIC incubated for 4 hrs by SEM analysis; assay type: cell membranes
Staphylococcus aureus [7] = test: Antibacterial activity against methicillin resistant Staphylococcus aureus M14 incubated for 16 to 18 hrs by broth dilution method; assay type: functional; details: time 16-18 hrs
[8] = Toxicity in Kunming mouse assessed as change in albumin level at 20 mg/kg, sc measured after 24 hrs; assay type: organism-based; details: in vivo
Staphylococcus aureus [9] = test: Upregulation of mspA gene expression in methicillin resistant Staphylococcus aureus N315 at 4 ug/ml incubated for 4 hrs by RNA-sequencing analysis; assay type: functional; details: dose 4.0 µg/ml
Cell membrane [10] = test: Induction of membrane disruption in methicillin resistant Staphylococcus aureus 20 assessed as viable cells with intact membrane at 64 ug/ml incubated for 2 hrs by SYTO9/PI staining based flow cytometry analysis (reference value: 98.7%); assay type: cell membranes; details: dose 64.0 µg/ml
Staphylococcus aureus [11] = test: Inhibition of DNA replication in methicillin resistant Staphylococcus aureus N315 at 4 ug/ml incubated for 4 hrs by RNA-sequencing analysis; assay type: functional, organism-based; details: dose 4.0 µg/ml
[12] = Toxicity in Kunming mouse assessed as change in urea level at 20 mg/kg, sc measured after 24 hrs; assay type: organism-based; details: in vivo
Staphylococcus aureus [13] = test: Bactericidal activity against Staphylococcus aureus ATCC 29213 at 8 times MIC within 6 hrs by time kill assay; assay type: functional, organism-based
Staphylococcus aureus [14] = test: Antibacterial activity against methicillin resistant Staphylococcus aureus 20 incubated for 16 to 18 hrs in presence of 2 to 64 ug/ml phosphatidylglycerol by checkerboard broth dilution method; assay type: functional, organism-based; details: time 16-18 hrs
Staphylococcus aureus [15] = test: Antibacterial activity against methicillin resistant Staphylococcus aureus 20 infected in Kunming mouse skin abscess model assessed as reduction in IL-6 level at 5 to 10 mg/kg, sc measured after 2 hrs by ELISA; assay type: functional, organism-based; details: dose 5-10 mg/kg
[16] = Toxicity in Kunming mouse skin abscess model infected with methicillin resistant Staphylococcus aureus assessed as liver damage at 5 to 10 mg/kg, sc measured after 2 hrs by H and E staining based assay; assay type: organism-based; details: in vivo, dose 5-10 mg/kg
Staphylococcus aureus [17] = test: Antibacterial activity against methicillin resistant Staphylococcus aureus 20 incubated for 16 to 18 hrs in presence of 2 to 64 ug/ml phosphatidylethanolamine by checkerboard broth dilution method; assay type: functional, organism-based; details: time 16-18 hrs
Staphylococcus aureus [18] = test: Inhibition of transcription in methicillin resistant Staphylococcus aureus N315 at 4 ug/ml incubated for 4 hrs by RNA-sequencing analysis; assay type: functional, organism-based; details: dose 4.0 µg/ml
Cell membrane [19] = test: Induction of membrane disruption in methicillin resistant Staphylococcus aureus 20 assessed as intracellular protein leakage incubated for 4 hrs by microspectrophotometer analysis; assay type: cell membranes; details: dose 2-16 µg/ml
Cell membrane [20] = test: Induction of membrane disruption in methicillin resistant Staphylococcus aureus 20 at 16 ug/ml incubated for 4 hrs by DAPI/PI staining based laser confocal microscopic analysis; details: dose 16.0 µg/ml
[21] = Toxicity in Kunming mouse assessed as change in mean corpuscular volume at 20 mg/kg, sc measured after 24 hrs; assay type: organism-based; details: in vivo
Staphylococcus aureus [22] = test: Antibacterial activity against methicillin resistant Staphylococcus aureus 20 infected in Kunming mouse skin abscess model assessed as reduction in inflammatory cells in infection sites at 5 to 10 mg/kg, sc measured after 2 hrs; assay type: functional, organism-based; details: dose 5-10 mg/kg
Staphylococcus aureus [23] = test: Antibacterial activity against methicillin resistant Staphylococcus aureus M17 incubated for 16 to 18 hrs by broth dilution method; assay type: functional; details: time 16-18 hrs
Staphylococcus aureus [24] = test: Antibacterial activity against methicillin resistant Staphylococcus aureus 20 infected in Kunming mouse skin abscess model assessed as reduction in inflammatory cell infiltration in subcutaneous layer at 10 mg/kg, sc measured after 2 hrs; assay type: functional, organism-based
Cell membrane [25] = test: Induction of membrane disruption in methicillin resistant Staphylococcus aureus 20 assessed as viable cells with intact membrane at 8 ug/ml incubated for 2 hrs by SYTO9/PI staining based flow cytometry analysis (reference value: 98.7%); assay type: cell membranes; details: dose 8.0 µg/ml
Staphylococcus aureus [26] = test: Inhibition of arginine synthesis in methicillin resistant Staphylococcus aureus N315 at 4 ug/ml incubated for 4 hrs by RNA-sequencing analysis; assay type: functional, organism-based; details: dose 4.0 µg/ml
Staphylococcus aureus [27] = test: Downregulation of srtA gene expression in methicillin resistant Staphylococcus aureus N315 at 4 ug/ml incubated for 4 hrs by RNA-sequencing analysis; assay type: functional; details: dose 4.0 µg/ml
[28] = Toxicity in Kunming mouse assessed as change in platelet count at 20 mg/kg, sc measured after 24 hrs; assay type: organism-based; details: in vivo
Staphylococcus aureus [29] = test: Upregulation of cidA gene expression in methicillin resistant Staphylococcus aureus N315 at 4 ug/ml incubated for 4 hrs by RNA-sequencing analysis; assay type: functional; details: dose 4.0 µg/ml
Escherichia coli = test: Antibacterial activity against Escherichia coli ATCC 25922 incubated for 16 to 18 hrs by broth dilution method; assay type: functional; details: time 16-18 hrs
[30] = Toxicity in Kunming mouse assessed as change in white blood cell counts at 20 mg/kg, sc measured after 24 hrs; assay type: organism-based; details: in vivo
Staphylococcus aureus [31] = test: Antibacterial activity against methicillin resistant Staphylococcus aureus M13 incubated for 16 to 18 hrs by broth dilution method; assay type: functional; details: time 16-18 hrs
Cell membrane [32] = test: Induction of membrane disruption in methicillin resistant Staphylococcus aureus 20 assessed as increase in intracellular ROS level incubated for 1 hr by DCFH-DA staining based analysis; assay type: cell membranes; details: dose 2-128 µg/ml
Staphylococcus aureus [33] = test: Inhibition of lysine synthesis in methicillin resistant Staphylococcus aureus N315 at 4 ug/ml incubated for 4 hrs by RNA-sequencing analysis; assay type: functional, organism-based; details: dose 4.0 µg/ml
Staphylococcus aureus [34] = test: Upregulation of gpsB gene expression in methicillin resistant Staphylococcus aureus N315 at 4 ug/ml incubated for 4 hrs by RNA-sequencing analysis; assay type: functional; details: dose 4.0 µg/ml
Staphylococcus aureus [35] = test: Disruption of redox process in methicillin resistant Staphylococcus aureus N315 at 4 ug/ml incubated for 4 hrs by RNA-sequencing analysis; assay type: functional, organism-based; details: dose 4.0 µg/ml
Staphylococcus aureus [36] = test: Antibacterial activity against methicillin resistant Staphylococcus aureus 20 incubated for 16 to 18 hrs in presence of 2 to 64 ug/ml cardiolipin by checkerboard broth dilution method; assay type: functional, organism-based; details: time 16-18 hrs
[37] = Toxicity in Kunming mouse assessed as skin redness at 40 to 80 mg/kg, sc measured after 24 hrs; assay type: organism-based; details: in vivo, dose 40-80 mg/kg
[38] = Toxicity in Kunming mouse assessed as spleen abnormalities at 10 mg/kg, sc measured after 24 hrs; assay type: organism-based; details: in vivo
Staphylococcus aureus [39] = test: Inhibition of proline synthesis in methicillin resistant Staphylococcus aureus N315 at 4 ug/ml incubated for 4 hrs by RNA-sequencing analysis; assay type: functional, organism-based; details: dose 4.0 µg/ml

C=CCc1cc(-c2ccc(OCCC[N+](C)(C)CC(=O)NCCCC)c(CC=C)c2)c2oc(-c3c(Cl)cccc3Cl)nc2c1.[Br-]
32 µg/mL: MIC (Staphylococcus aureus [5])
8 µg/mL: MIC (Staphylococcus aureus [31])
inactive: Activity (Staphylococcus aureus [14]) | Activity (Staphylococcus aureus [36])
61.6%: Activity (Cell membrane [25])
4 µg/mL: MIC (Staphylococcus aureus [2])
0.17%: Activity (Cell membrane [4])
2 µg/mL: MIC (Staphylococcus aureus [7]) | MIC (Staphylococcus aureus [23])
active: inhibition (Staphylococcus aureus [1]) | Activity (Cell membrane [3]) | Activity (Cell membrane [6]) | Activity (Staphylococcus aureus [9]) | inhibition (Staphylococcus aureus [11]) | Activity (Staphylococcus aureus [13]) | Activity (Staphylococcus aureus [15]) | Activity (Staphylococcus aureus [17]) | inhibition (Staphylococcus aureus [18]) | Activity (Cell membrane [19]) Dose-Dependent Effect | Activity (Cell membrane [20]) | Activity (Staphylococcus aureus [22]) | Activity (Staphylococcus aureus [24]) | inhibition (Staphylococcus aureus [26]) | Activity (Staphylococcus aureus [27]) | Activity (Staphylococcus aureus [29]) | Activity (Cell membrane [32]) Dose-Dependent Effect | inhibition (Staphylococcus aureus [33]) | Activity (Staphylococcus aureus [34]) | Activity (Staphylococcus aureus [35]) | inhibition (Staphylococcus aureus [39])
0.28%: Activity (Cell membrane [10])
Toxic: Activity [37]
128 µg/mL: MIC (Escherichia coli)
Non-Toxic: Activity [8] | Activity [12] | Activity [16] | Activity [21] | Activity [28] | Activity [30] | Activity [38]
